Literature values as cited in patent US20110003005A1, “Methods of Treating PDNV and PONV with Extended Release Ondansetron Compositions” (priority 2009, published 2011).

SMILES: Cc1nccn1CC1CCc2c(c3ccccc3n2C)C1=O (centres unmarked) [ondansetron]
- effect of ondansetron administered after the 24 h period following surgery (Pan et al. 2008): efficacy
- effect of oral ondansetron administered in the 24 h period after surgery (Pan et al. 2008): no effect
- nausea and vomiting post-discharge, relative to placebo (orally administered, Gan et al. 2002): did reduce
- improving control of nausea and vomiting in the 24 hour period following surgery (orally administered, Kovac et al. 1999): ineffective
- orally administered ondansetron versus placebo, nausea and vomiting (over a 24 and 72 h period following surgery, Thagaard et al. 2003): no difference
